According to patent US20080063628A1, “METHODS TO PROMOTE CELL DIFFERENTIATION” (priority 2006, published 2008):

How the values were obtained:
[1] = tested on: early passage (P5) pancreatic-derived stromal cell line; assay: Two sequential low dose trichostatin A treatments, gene expression by RT-PCR (Example 7); format: cell-based, human; details: for HNF (HNF-3 beta) gene expression / Insulin gene expression / Pdx-1 gene expression / glucagon gene expression: 1.25 μM 0-24 h + 96-120 h; for HNF-3 beta RT-PCR detection cycle / Pdx-1 RT-PCR detection cycle / glucagon RT-PCR detection cycle: 1.25 μM
Protocol: Several cell lines obtained from different amniotic fluid specimens (see Example 14) and pancreas donors (see Example 13) were tested with similar results. Two lines at similar passage number but derived from different amniotic fluid specimens are shown in Table VII-A and Table VII-B for this example. One of these cell lines was also used in examples 2 and 4 above. In addition, this example also contains comparison data in Table VII-C and Table VII-D for a single pancreatic-derived stromal line grown to early and late passage number.
Amniotic fluid derived cells or pancreatic-derived stromal cells were seeded into 24-well tissue culture plates at a density of 5000/cm^2 and cultured in AMNIOMAX (Invitrogen) or DMEM with 10% FBS respectively under standard cell culture conditions until confluent. After the cells reached confluency, amniotic fluid derived cells were treated at time 0 hours with a dose of 500 nM trichostatin A, and pancreatic-derived stromal cells were treated with a dose of 1.25 μM trichostatin A solubilized in DMSO and medium. At time 24 hours, cell cultures underwent a complete medium change to remove all traces of trichostatin A. At time 96 hours, cell cultures were re-fed with fresh medium and received a second dose of trichostatin A at the same concentration as used previously. […]
Samples were taken daily for RT-PCR at the times indicated in Table VII-A to D. The culture medium was removed, and samples were rinsed in PBS then collected in RLT with β-mercaptoethanol (Qiagen). RNA was purified using the RNeasy Mini Kit (Qiagen) and RNA quantity and quality were determined using a spectrophotometer. cDNA was made using the iScript cDNA synthesis kit (BioRad).
Samples of 20 ng cDNA were used in each reaction to determine the expression levels of the following genes in amniotic fluid-derived cells: Gata1, HNF-3 beta, Pdx-1, insulin, and Sox17. Similarly, samples of 20 ng cDNA were used in each reaction to determine the expression level of the following genes in pancreatic-derived cells: glucagon, HNF-3 beta, insulin and Pdx-1. Real-Time PCR was performed on the Applied Biosystems 7500, and data was analyzed using the accompanying software according to the methods described in Example 15.
Real-time PCR amplifcation and quantitative analysis. Unless otherwise stated, all reagents were purchased from Applied Biosystems. Real-time PCR reactions were performed using the ABI PRISM™ 7500 Sequence Detection System. TAQMAN™ FAST UNIVERSAL PCR MASTER MIX™ (ABI, CA) was used with 20 ng of reverse transcribed RNA in a total reaction volume of 20 μl. Each cDNA sample was run in duplicate to allow correction of pipetting errors. Primers and FAM-labeled TAQMAN™ probes were used at concentrations of 200 nM. The level of expression for each target gene was normalized using the pre-developed Applied Biosystem's human glyceraldehyde-3-phosphate dehydrogenase (GAPDH) endogenous control kit. Primers and probes were designed using either ABI PRISM PRIMER EXPRESS™ software or a pre-developed ABI gene analysis kit. For each gene, either one of the primers or the probe were designed to be exon-boundary spanning. This eliminated the possibility of the primers/probe binding to any genomic DNA present. The primer and probe sets are listed as follows: Pdx-1 (Hs00426216), Insulin (Hs00355773), glucagon (Hs00174967), and FoxA2 (HNF 3-beta) (Hs00232764). The remaining primers were designed using the PRIMERS program (ABI, CA). After an initial 95° C. incubation for 20 sec, samples were cycled 40 times in two stages: a denaturation step at 95° C. for 3 sec, followed by an annealing/extension step at 60° C. for 30 sec.
For each primer/probe set, a cycle time value was determined as the cycle number at which the fluorescence intensity of the PCR reaction reached a specific value in the middle of the exponential region of amplification. […]

[2] = tested on: second amniotic fluid-derived cell line; assay: as above; format: cell-based, human; details: 0.5 μM, after 72 hours, remainder of the experiment
[3] = 24 hours following the addition

CC(/C=C/C(=O)NO)=C\[C@@H](C)C(=O)c1ccc(N(C)C)cc1 [trichostatin A]
HNF (HNF-3 beta) gene expression ([1]; 24 hrs): +++ (detectable at less than 35 cycles by RT-PCR with SE less than 0.9) | Insulin gene expression ([1]; 24 hrs): nd (not detectable at >40 cycles by RT-PCR) | Pdx-1 gene expression ([1]; 24 hrs): +++ (detectable at less than 35 cycles by RT-PCR with SE less than 0.9) | glucagon gene expression ([1]; 24 hrs): +++ (detectable at less than 35 cycles by RT-PCR with SE less than 0.9) | HNF (HNF-3 beta) gene expression ([1]; 48 hrs): nd (not detectable at >40 cycles by RT-PCR) | Insulin gene expression ([1]; 48 hrs): nd (not detectable at >40 cycles by RT-PCR) | Pdx-1 gene expression ([1]; 48 hrs): nd (not detectable at >40 cycles by RT-PCR) | glucagon gene expression ([1]; 48 hrs): + (detectable between 35 and 40 cycles by RT-PCR) | HNF (HNF-3 beta) gene expression ([1]; 72 hrs): nd (not detectable at >40 cycles by RT-PCR) | Insulin gene expression ([1]; 72 hrs): nd (not detectable at >40 cycles by RT-PCR) | Pdx-1 gene expression ([1]; 72 hrs): nd (not detectable at >40 cycles by RT-PCR) | glucagon gene expression ([1]; 72 hrs): nd (not detectable at >40 cycles by RT-PCR) | HNF (HNF-3 beta) gene expression ([1]; 96 hrs): nd (not detectable at >40 cycles by RT-PCR) | Insulin gene expression ([1]; 96 hrs): nd (not detectable at >40 cycles by RT-PCR) | Pdx-1 gene expression ([1]; 96 hrs): nd (not detectable at >40 cycles by RT-PCR) | glucagon gene expression ([1]; 96 hrs): nd (not detectable at >40 cycles by RT-PCR) | HNF (HNF-3 beta) gene expression ([1]; 120 hrs): +++ (detectable at less than 35 cycles by RT-PCR with SE less than 0.9) | Insulin gene expression ([1]; 120 hrs): nd (not detectable at >40 cycles by RT-PCR) | Pdx-1 gene expression ([1]; 120 hrs): +++ (detectable at less than 35 cycles by RT-PCR with SE less than 0.9) | glucagon gene expression ([1]; 120 hrs): + (detectable between 35 and 40 cycles by RT-PCR) | HNF (HNF-3 beta) gene expression ([1]; 144 hrs): nd (not detectable at >40 cycles by RT-PCR) | Insulin gene expression ([1]; 144 hrs): nd (not detectable at >40 cycles by RT-PCR) | Pdx-1 gene expression ([1]; 144 hrs): nd (not detectable at >40 cycles by RT-PCR) | glucagon gene expression ([1]; 144 hrs): + (detectable between 35 and 40 cycles by RT-PCR) | HNF-3 beta RT-PCR detection cycle [1, 3]: 34 cycles | Pdx-1 RT-PCR detection cycle [1, 3]: 34 cycles | HNF-3 beta RT-PCR detection cycle ([1]; after the second addition): 33 cycles | Pdx-1 RT-PCR detection cycle ([1]; after the second addition): 33 cycles | glucagon RT-PCR detection cycle ([1]; after the second treatment cycle): 37 cycles | glucagon RT-PCR detection cycle ([1]; first 48 hours after addition): 34 cycles | HNF-3 beta RT-PCR detection cycle [2]: 37 cycles
